Experiments:
[1] = tested on: RAS-mutant HCT-116 cells pERK/pMEK; assay: Immunoblot analysis of pERK and pMEK; format: cell-based, human; conditions: FIG. 2, 1 h treatment
Experimental: For immunoblotting analysis, 500,000 HCT-116 cells were plated in 1 mL of complete RPMI-1640 growth medium in 24-well flat-bottomed transparent dishes (Costar). Cells were maintained overnight at 37° C. under 5% CO2 before treatment with compounds' dilution series for one hour. Cells were then washed once in PBS and lized in 250 μL of Igepal Lysis Buffer (50 mM Tris-HCl pH 7.5, 150 mM NaCl, 1% Igepal-CA630, 1 mM EDTA, 10% Glycerol) supplemented with Leupeptin, Aprotinin, PMSF, phosphatase inhibitor cocktail (Sigma) and Na3VO4 at 4° C. for 15 minutes with gentle rocking. Cell extracts were then cleared by centrifugation at 20,000 g at 4° C. for 10 minutes. Cleared lysates were then transferred on ice in fresh tubes and then boiled in sample loading buffer (100 mM Tris-HCl pH 6.8, 4% SDS, 0.2% bromophenol blue, 20% glycerol, 200 mM β-mercaptoethanol) for 5 minutes prior to fractionation by SDS-PAGE and transfer to nitrocellulose membranes (PALL). […]

[2] = tested on: RAS-mutant cancer cell lines pERK; assay: Phospho-ERK inhibition in a panel of cancer cell lines (AlphaLISA); format: cell-based, human
Experimental: All cancer cell lines (A375, A101D, A2058, RKO, HT29 SK-MEL 30, IPC298, HepG2, HCT-116, Lovo, SW620, SW480, NCI-H358, NCI-H2122, Calu-6, NCIH2087, NCIH1755, NCIH1666 and Mewo) were obtained from ATCC and cultured in RPMI-1640 medium (Gibco) supplemented with 5% heat inactivated fetal bovine serum (FBS, Wisent) at 37° C. under 5% CO2. Cells were maintained in T175 flasks (Greiner). They were passaged by removing the culture medium, washing once in 10 mL of room temperature Phosphate Buffered Saline (PBS; Wisent) and incubating at 37° C. with 2 mL of 0.05% Trypsin (Thermo-Fisher). […]
After treatment, media was removed, and cells were lysed in 50 μL of 1× AlphaScreen Ultra Lysis Buffer (Perkin Elmer). […] After completion of the reactions, the signals were recorded on an EnVision plate reader (Perkin Elmer) using built in AlphaLISA® settings.
The effect of each compound dilution on the pERK signal was expressed in % inhibition and calculated as follows. […]
The ability of each compound to inhibit pERK signal was expressed as an IC50 value obtained by plotting the inhibition values for each data point of a dilution series and fitting the obtained curves using a log(agonist) versus response−variable slope (four parameters) function using GraphPadPrism (V7.0). […]

SMILES	paradoxical induction of pERK or pMEK signaling (immunoblot) [1]	paradoxical induction of the pathway (pERK) ([2]; RAS-mutant cell lines of Table D)	YMIN of pERK IC50 curves ([2]; in 11 of the 13 RAS-mutant cell lines tested)
Nc1cccc2c1ncn2-c1ncc2ncnc(Nc3c(F)ccc(NS(=O)(=O)c4cccc(Cl)c4Cl)c3F)c2n1 [Example 80]	does not induce paradoxical induction of pERK or pMEK signaling		
Cc1ccc2c(Nc3cccc(Cl)c3F)nccc2c1NC(=O)c1csc2c(N)ncnc12 [Belvarafenib, reference compound]		mild to strong induction of the pathway	< −30%

Reference: patent US20240239801A1, “PYRIMIDO[5,4,D]PYRIMIDINE COMPOUNDS, COMPOSITIONS COMPRISING THEM AND USES THEREOF” (Université de Montréal, priority 2021, published 2024)
